The values below come from patent US8354416B2 (Glaxo Group Limited, priority 2005, dated 2013).

This assay deals with influx of neutrophils to the lung in LPS-challenged rats. In words: Rat LPS neutrophilia model. It is filed as in vivo. The conditions noted are these: intratracheal, LPS aerosol 100 ug/ml, in at least one of the range of conditions tested, significance p<0.05. As to the method: Rat LPS Neutrophilia Model
The effect of compounds on the influx of neutrophils to the lung in LPS-challenged rats is evaluated as follows. The test compound is suspended in one of the following solutions: 0.5% tween 80/PBS, 0.5% tween 80/saline, 10% EtOH/saline (with pH adjusted to 2.0, or 8.0 with HCl, or unadjusted), Saline (pH 2.0, 6.5 or 8.0, 0.5% Tragacanth, 1% DMSO/20% Encapsin/Saline, or acidified 5% Tragacanth. The suspension process may be aided by the use of a glass homogenizer. For intratracheal administration, the animals are anesthetized with inhaled isoflurane and placed in a supine position, the trachea is intubated with a steel gavage needle (1.5 inch, 22 gauge, small ball) or a Penn-Century Microsprayer Aerosolizer (model IA-1B) and 200 ul of dosing solution is delivered. The animals are visually monitored during the recovery process, which typically occurs within two minutes. It is noted that the test compounds may be alternatively administered via the microsprayer in a dry powder blend with a suitable excipient, such as lactose.
Rats treated with compound or vehicle (15 min-24 hours pretreatment) are exposed to an LPS aerosol (100 ug/ml) for 15 min. Four hours later the rats are euthanized with pentobarbital (100 mg/kg, i.p.) and the airways are lavaged with 5 washes of 5 ml of phosphate buffered saline. The harvested cells are stained (Diffquick) and counted to determine total and differential cell data. […] Inhibition of neutrophil levels relative to no compound controls is calculated based on the differential counts.
The data is obtained as % inhibition using a particular concentration and pretreat time.
For the molecule `CCCCNC(=O)c1ccc(C)c(-c2nc(N3CCC(N4CCC(C)CC4)CC3)nc3c2ccc(=O)n3-c2c(F)cccc2F)c1` [Example 167, N-butyl-3-[8-(2,6-difluorophenyl)-2-(4-methyl-1,4′-bipiperidin-1′-yl)-7-oxo-7,8-dihydropyrido[2,3-d]pyrimidin-4-yl]-4-methylbenzamide], the “inhibition of neutrophilia (neutrophil levels in airway lavage relative to no compound controls)” value is “statistically significant inhibition of neutrophilia”. The result for `CCN(CC)CCCNc1nc(-c2cc(C(=O)Nc3ccc(F)cc3)ccc2C)c2ccc(=O)n(-c3c(F)cccc3F)c2n1` [Example 160, 3-[2-{[3-(diethylamino)propyl]amino}-8-(2,6-difluorophenyl)-7-oxo-7,8-dihydropyrido[2,3-d]pyrimidin-4-yl]-N-(4-fluorophenyl)-4-methylbenzamide] reads “statistically significant inhibition of neutrophilia”; that for `Cc1ccc(C(=O)NCC(F)(F)F)cc1-c1nc(N2CCC(N3CCC(C)CC3)CC2)nc2c1ccc(=O)n2-c1c(F)cccc1F` [Example 172, 3-[8-(2,6-difluorophenyl)-2-(4-methyl-1,4′-bipiperidin-1′-yl)-7-oxo-7,8-dihydropyrido[2,3-d]pyrimidin-4-yl]-4-methyl-N-(2,2,2-trifluoroethyl)benzamide], “inactive”. The result for `Cc1ccc(C(=O)NC2CCC2)cc1-c1nc(N2CCC(N3CCC(C)CC3)CC2)nc2c1ccc(=O)n2-c1c(F)cccc1F` [Example 175, N-cyclobutyl-3-[8-(2,6-difluorophenyl)-2-(4-methyl-1,4′-bipiperidin-1′-yl)-7-oxo-7,8-dihydropyrido[2,3-d]pyrimidin-4-yl]-4-methylbenzamide] reads “inactive”. The result for `CCNC(=O)c1ccc(C)c(-c2nc(N3CCC(N4CCC(C)CC4)CC3)nc3c2ccc(=O)n3-c2c(F)cccc2F)c1` [Example 173, 3-[8-(2,6-difluorophenyl)-2-(4-methyl-1,4′-bipiperidin-1′-yl)-7-oxo-7,8-dihydropyrido[2,3-d]pyrimidin-4-yl]-N-ethyl-4-methylbenzamide] reads “statistically significant inhibition of neutrophilia”. With `Cc1ccc(C(=O)NC2CC2)cc1-c1nc(N2CCC(N)CC2)nc2c1ccc(=O)n2-c1c(F)cccc1F` [Example 22, 3-[2-(4-amino-1-piperidinyl)-8-(2,6-difluorophenyl)-7-oxo-7,8-dihydropyrido[2,3-d]pyrimidin-4-yl]-N-cyclopropyl-4-methylbenzamide], the “inhibition of neutrophilia (neutrophil levels in airway lavage relative to no compound controls)” value is on record as “statistically significant inhibition of neutrophilia”. The result for `CCN(CC)CCCNc1nc(-c2cc(C(=O)NC)ccc2C)c2ccc(=O)n(-c3c(F)cccc3F)c2n1` [Example 119, 3-[2-{[3-(diethylamino)propyl]amino}-8-(2,6-difluorophenyl)-7-oxo-7,8-dihydropyrido[2,3-d]pyrimidin-4-yl]-N,4-dimethylbenzamide] reads “statistically significant inhibition of neutrophilia”; that for `Cc1ccc(C(=O)NCC2CC2)cc1-c1nc(N2CCC(N)CC2)nc2c1ccc(=O)n2-c1c(F)cccc1F` [Example 27, 3-[2-(4-amino-1-piperidinyl)-8-(2,6-difluorophenyl)-7-oxo-7,8-dihydropyrido[2,3-d]pyrimidin-4-yl]-N-(cyclopropylmethyl)-4-methylbenzamide], “statistically significant inhibition of neutrophilia”. The result for `Cc1ccc(C(=O)Nc2nccs2)cc1-c1nc(NCCCNC(C)(C)C)nc2c1ccc(=O)n2-c1c(F)cccc1F` [Example 102, 3-[8-(2,6-difluorophenyl)-2-({3-[(1,1-dimethylethyl)amino]propyl}amino)-7-oxo-7,8-dihydropyrido[2,3-d]pyrimidin-4-yl]-4-methyl-N-1,3-thiazol-2-ylbenzamide] reads “statistically nonsignificant inhibition of neutrophilia”; that for `Cc1ccc(C(=O)Nc2nccs2)cc1-c1nc(NCCNC(C)C)nc2c1ccc(=O)n2-c1c(F)cccc1F` [Example 103, 3-[8-(2,6-difluorophenyl)-2-({2-[(1-methylethyl)amino]ethyl}amino)-7-oxo-7,8-dihydropyrido[2,3-d]pyrimidin-4-yl]-4-methyl-N-1,3-thiazol-2-ylbenzamide], “statistically significant inhibition of neutrophilia”; that for `Cc1ccc(C(=O)Nc2nccs2)cc1-c1nc(NCCCNC(C)C)nc2c1ccc(=O)n2-c1c(F)cccc1F` [Example 101, 3-[8-(2,6-difluorophenyl)-2-({3-[(1-methylethyl)amino]propyl}amino)-7-oxo-7,8-dihydropyrido[2,3-d]pyrimidin-4-yl]-4-methyl-N-1,3-thiazol-2-ylbenzamide], “statistically significant inhibition of neutrophilia”. The result for `Cc1ccc(C(=O)NC2CC2)cc1-c1nc(NCCN(C)C)nc2c1ccc(=O)n2-c1c(F)cccc1F` [Example 25] reads “statistically nonsignificant inhibition of neutrophilia”; that for `Cc1ccc(C(=O)Nc2ccc(F)cc2)cc1-c1nc(NCc2ncc[nH]2)nc2c1ccc(=O)n2-c1c(F)cccc1F` [Example 78, 3-{8-(2,6-difluorophenyl)-2-[(1H-imidazol-2-ylmethyl)amino]-7-oxo-7,8-dihydropyrido[2,3-d]pyrimidin-4-yl}-N-(4-fluorophenyl)-4-methylbenzamide], “statistically significant inhibition of neutrophilia”; that for `CCN(CC)CCCNc1nc(-c2cc(C(=O)N[C@H](C)C(C)C)ccc2C)c2ccc(=O)n(-c3c(F)cccc3F)c2n1` [Example 130], “statistically nonsignificant inhibition of neutrophilia”.

Consider `CCN(CC)CCCNc1nc(-c2cc(C(=O)N[C@@H](C)c3ccccc3)ccc2C)c2ccc(=O)n(-c3c(F)cccc3F)c2n1` [Example 149, 3-[2-{[3-(diethylamino)propyl]amino}-8-(2,6-difluorophenyl)-7-oxo-7,8-dihydropyrido[2,3-d]pyrimidin-4-yl]-4-methyl-N-[(1S)-1-phenylethyl]benzamide], for which the “inhibition of neutrophilia (neutrophil levels in airway lavage relative to no compound controls)” value is “inactive”. As for `CNCCNc1nc(-c2cc(C(=O)NCc3ccccc3)ccc2C)c2ccc(=O)n(-c3c(F)cccc3F)c2n1` [Example 59, 3-(8-(2,6-difluorophenyl)-2-{[2-(methylamino)ethyl]amino}-7-oxo-7,8-dihydropyrido[2,3-d]pyrimidin-4-yl)-4-methyl-N-(phenylmethyl)benzamide], the entry is “statistically significant inhibition of neutrophilia”. The result for `CNCCNc1nc(-c2cc(C(=O)NC3CCCC3)ccc2C)c2ccc(=O)n(-c3c(F)cccc3F)c2n1` [Example 58, N-cyclopentyl-3-(8-(2,6-difluorophenyl)-2-{[2-(methylamino)ethyl]amino}-7-oxo-7,8-dihydropyrido[2,3-d]pyrimidin-4-yl)-4-methylbenzamide] reads “statistically significant inhibition of neutrophilia”; that for `CCCNC(=O)c1ccc(C)c(-c2nc(N3CCC(N4CCC(C)CC4)CC3)nc3c2ccc(=O)n3-c2c(F)cccc2F)c1` [Example 166, 3-[8-(2,6-difluorophenyl)-2-(4-methyl-1,4′-bipiperidin-1′-yl)-7-oxo-7,8-dihydropyrido[2,3-d]pyrimidin-4-yl]-4-methyl-N-propylbenzamide], “statistically significant inhibition of neutrophilia”. For `Cc1ccc(C(=O)Nc2ccc(F)cc2)cc1-c1nc(NC2CC(C)(C)NC(C)(C)C2)nc2c1ccc(=O)n2-c1c(F)cccc1F` [Example 66, 3-{8-(2,6-difluorophenyl)-7-oxo-2-[(2,2,6,6-tetramethyl-4-piperidinyl)amino]-7,8-dihydropyrido[2,3-d]pyrimidin-4-yl}-N-(4-fluorophenyl)-4-methylbenzamide], the “inhibition of neutrophilia (neutrophil levels in airway lavage relative to no compound controls)” value is “statistically significant inhibition of neutrophilia”. The result for `Cc1ccc(C(=O)NC2CCCC2)cc1-c1nc(N2CCC(N3CCC(C)CC3)CC2)nc2c1ccc(=O)n2-c1c(F)cccc1F` [Example 169, N-cyclopentyl-3-[8-(2,6-difluorophenyl)-2-(4-methyl-1,4′-bipiperidin-1′-yl)-7-oxo-7,8-dihydropyrido[2,3-d]pyrimidin-4-yl]-4-methylbenzamide] reads “statistically nonsignificant inhibition of neutrophilia”.
